# Reference: patent US20230295200A1 (REGENTS OF THE UNIVERSITY OF MICHIGAN, priority 2022, published 2023)
# Target: T1, STAT5A (Homo sapiens, UniProt P42229)
# T1 sequence (P42229 1-794): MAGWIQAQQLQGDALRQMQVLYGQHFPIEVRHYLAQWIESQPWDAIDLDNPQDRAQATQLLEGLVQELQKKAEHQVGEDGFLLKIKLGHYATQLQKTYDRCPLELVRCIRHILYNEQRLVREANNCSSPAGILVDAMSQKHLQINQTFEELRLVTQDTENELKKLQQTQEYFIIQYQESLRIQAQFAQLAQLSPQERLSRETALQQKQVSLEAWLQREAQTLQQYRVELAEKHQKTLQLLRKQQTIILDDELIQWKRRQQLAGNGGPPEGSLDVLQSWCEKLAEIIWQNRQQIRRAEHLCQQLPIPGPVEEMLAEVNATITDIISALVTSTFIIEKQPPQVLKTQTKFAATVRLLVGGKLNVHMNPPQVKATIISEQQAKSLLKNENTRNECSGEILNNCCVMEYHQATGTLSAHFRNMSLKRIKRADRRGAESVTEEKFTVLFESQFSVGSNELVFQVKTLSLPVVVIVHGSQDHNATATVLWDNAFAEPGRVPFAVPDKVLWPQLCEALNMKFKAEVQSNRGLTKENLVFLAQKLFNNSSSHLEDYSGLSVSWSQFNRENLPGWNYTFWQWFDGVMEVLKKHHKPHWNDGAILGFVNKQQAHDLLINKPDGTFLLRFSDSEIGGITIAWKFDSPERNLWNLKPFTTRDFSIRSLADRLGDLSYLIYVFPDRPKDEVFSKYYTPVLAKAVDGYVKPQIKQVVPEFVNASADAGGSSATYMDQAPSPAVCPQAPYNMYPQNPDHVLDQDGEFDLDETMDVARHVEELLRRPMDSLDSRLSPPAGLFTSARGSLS
# Assay: Fluorescence polarization (FP) binding assay, STAT5A
# Conditions: FP competition, 5 nM fluorescein-labeled tracer, 200 nM protein, PBS pH7.4
# Description: Evaluation of the activity of the inhibitors may be accomplished by fluorescence polarization (FP) experiments. A representative general protocol is the following:
# Fluorescence polarization (FP) experiments are performed in black round-bottom plates using the CLARIOstar microplate reader. To each well, fluorescein-labeled tracer and STAT5 or STAT6 protein are added in assay buffer. […] The inhibition constants are determined as the concentration of the STAT5 or STAT6 at which 50% of the ligand is bound.
# Fluorescence polarization (FP) experiments were performed in 96-well, black round-bottom plates (Microfluor 2, Fisher Scientific) using the CLARIOstar microplate reader (BMG Labtech). To each well, 5 nM of fluoresceinlabeled tracer and 200 nM of STAT5 and/or STAT6 protein were added to a final volume of 100 μl in the assay buffer (PBS pH7.4+0.01% BGG+0.01% Tween-20, 2 mM DTT). The plate was mixed on a shaker for 15 m and incubated at room temperature for 1 h to reach equilibrium. […] All experimental data were analyzed using Prism 8.0 software (GraphPad Software), and the inhibition constants were determined by nonlinear curve fitting as the concentration of the STAT5 and/or STAT6 at which 50% of the ligand is bound.
row,SMILES,Ki
1,"CC(C)(C)[C@H](NC(=O)c1cc2cc(C(F)(F)P(=O)(O)O)ccc2s1)C(=O)N1CCC[C@H]1C(=O)Nc1ncc(-c2ccc(Cl)cc2)s1 [Compound 263, ((2-(((S)-1-((S)-2-((5-(4-chlorophenyl)thiazol-2-yl)carbamoyl)pyrrolidin-1-yl)-3,3-dimethyl-1-oxobutan-2-yl)carbamoyl)benzo[b]thiophen-5-yl)difluoromethyl)phosphonic acid]",> 10000 nM
2,"CC(C)(C)[C@H](NC(=O)c1cc2cc(C(F)(F)P(=O)(O)O)ccc2s1)C(=O)N1CCC[C@H]1C(=O)Nc1ncc(-c2ccc(Br)cc2)s1 [Compound 264, ((2-(((S)-1-((S)-2-((5-(4-bromophenyl)thiazol-2-yl)carbamoyl)pyrrolidin-1-yl)-3,3-dimethyl-1-oxobutan-2-yl)carbamoyl)benzo[b]thiophen-5-yl)difluoromethyl)phosphonic acid]",1000 to 10000 nM
3,"CN(C(=O)[C@@H]1CCCCCN1C(=O)[C@@H](NC(=O)c1cc2cc(C(F)(F)P(=O)(O)O)ccc2s1)C(C)(C)C)c1ncc(-c2ccccc2)s1 [Compound 303, ((2-(((S)-3,3-dimethyl-1-((S)-2-(methyl(5-phenylthiazol-2-yl)carbamoyl)azepan-1-yl)-1-oxobutan-2-yl)carbamoyl)benzo[b]thiophen-5-yl)difluoromethyl)phosphonic acid]",1000 to 10000 nM
4,"CCN(C(=O)[C@@H]1CCCCCN1C(=O)[C@@H](NC(=O)c1cc2cc(C(F)(F)P(=O)(O)O)ccc2s1)C(C)(C)C)c1ncc(-c2ccccc2)s1 [Compound 304, ((2-(((S)-1-((S)-2-(ethyl(5-phenylthiazol-2-yl)carbamoyl)azepan-1-yl)-3,3-dimethyl-1-oxobutan-2-yl)carbamoyl)benzo[b]thiophen-5-yl)difluoromethyl)phosphonic acid]",1000 to 10000 nM
5,"CN(C)C(=O)CCN(C(=O)[C@@H]1CCCN1C(=O)[C@@H](NC(=O)c1cc2cc(C(F)(F)P(=O)(O)O)ccc2s1)C1CC1)c1ccc(-c2nccs2)cc1 [Compound 321, ((2-(((S)-1-cyclopropyl-2-((S)-2-((3-(dimethylamino)-3-oxopropyl)(4-(thiazol-2-yl)phenyl)carbamoyl)pyrrolidin-1-yl)-2-oxoethyl)carbamoyl)benzo[b]thiophen-5-yl)difluoromethyl)phosphonic acid]",1000 to 10000 nM
6,"CCC(CC)[C@H](NC(=O)c1cc2cc(C(F)(F)P(=O)(O)O)ccc2s1)C(=O)N1CCC[C@H]1C(=O)N(CCC(=O)N(C)C)c1ccc(-c2nccs2)cc1 [Compound 322, ((2-(((S)-1-((S)-2-((3-(dimethylamino)-3-oxopropyl)(4-(thiazol-2-yl)phenyl)carbamoyl)pyrrolidin-1-yl)-3-ethyl-1-oxopentan-2-yl)carbamoyl)benzo[b]thiophen-5-yl)difluoromethyl)phosphonic acid]",100 to 1000 nM
7,"CN(C)C(=O)CCN(C(=O)[C@@H]1CCCN1C(=O)[C@@H](NC(=O)c1cc2cc(C(F)(F)P(=O)(O)O)ccc2s1)C1CCCCC1)c1ccc(-c2nccs2)cc1 [Compound 323, ((2-(((S)-1-cyclohexyl-2-((S)-2-((3-(dimethylamino)-3-oxopropyl)(4-(thiazol-2-yl)phenyl)carbamoyl)pyrrolidin-1-yl)-2-oxoethyl)carbamoyl)benzo[b]thiophen-5-yl)difluoromethyl)phosphonic acid]",1000 to 10000 nM
8,"CN(C)C(=O)CCN(C(=O)[C@@H]1CCCN1C(=O)[C@@H](NC(=O)c1cc2cc(C(F)(F)P(=O)(O)O)ccc2s1)c1ccccc1)c1ccc(-c2nccs2)cc1 [Compound 324, ((2-(((S)-2-((S)-2-((3-(dimethylamino)-3-oxopropyl)(4-(thiazol-2-yl)phenyl)carbamoyl)pyrrolidin-1-yl)-2-oxo-1-phenylethyl)carbamoyl)benzo[b]thiophen-5-yl)difluoromethyl)phosphonic acid]",1000 to 10000 nM
9,"CN(C)C(=O)CCN(C(=O)[C@@H]1CCCN1C(=O)[C@H](CCc1ccccc1)NC(=O)c1cc2cc(C(F)(F)P(=O)(O)O)ccc2s1)c1ccc(-c2nccs2)cc1 [Compound 328, ((2-(((S)-1-((S)-2-((3-(dimethylamino)-3-oxopropyl)(4-(thiazol-2-yl)phenyl)carbamoyl)pyrrolidin-1-yl)-1-oxo-4-phenylbutan-2-yl)carbamoyl)benzo[b]thiophen-5-yl)difluoromethyl)phosphonic acid]",100 to 1000 nM

# Results, then the molecule that gave them:
row,Ki,SMILES
1,100 to 1000 nM,"CN(C)C(=O)CCN(C(=O)[C@@H]1CCCN1C(=O)[C@H](Cc1ccc(F)cc1)NC(=O)c1cc2cc(C(F)(F)P(=O)(O)O)ccc2s1)c1ccc(-c2nccs2)cc1 [Compound 325, ((2-(((S)-1-((S)-2-((3-(dimethylamino)-3-oxopropyl)(4-(thiazol-2-yl)phenyl)carbamoyl)pyrrolidin-1-yl)-3-(4-fluorophenyl)-1-oxopropan-2-yl)carbamoyl)benzo[b]thiophen-5-yl)difluoromethyl)phosphonic acid]"
2,1000 to 10000 nM,"CN(C)C(=O)CCN(C(=O)[C@@H]1CCCN1C(=O)[C@H](Cc1ccc(Br)cc1)NC(=O)c1cc2cc(C(F)(F)P(=O)(O)O)ccc2s1)c1ccc(-c2nccs2)cc1 [Compound 326, ((2-(((S)-3-(4-bromophenyl)-1-((S)-2-((3-(dimethylamino)-3-oxopropyl)(4-(thiazol-2-yl)phenyl)carbamoyl)pyrrolidin-1-yl)-1-oxopropan-2-yl)carbamoyl)benzo[b]thiophen-5-yl)difluoromethyl)phosphonic acid]"
3,1000 to 10000 nM,"CN(C)C(=O)CCN(C(=O)[C@@H]1CCCN1C(=O)[C@H](Cc1ccc(C(F)(F)F)cc1)NC(=O)c1cc2cc(C(F)(F)P(=O)(O)O)ccc2s1)c1ccc(-c2nccs2)cc1 [Compound 327, ((2-(((S)-1-((S)-2-((3-(dimethylamino)-3-oxopropyl)(4-(thiazol-2-yl)phenyl)carbamoyl)pyrrolidin-1-yl)-1-oxo-3-(4-(trifluoromethyl)phenyl)propan-2-yl)carbamoyl)benzo[b]thiophen-5-yl)difluoromethyl)phosphonic acid]"
4,1000 to 10000 nM,"CN(C)C(=O)CCN(C(=O)[C@@H]1CCCN1C(=O)[C@H](Cc1ccc2ccccc2c1)NC(=O)c1cc2cc(C(F)(F)P(=O)(O)O)ccc2s1)c1ccc(-c2nccs2)cc1 [Compound 329, ((2-(((S)-1-((S)-2-((3-(dimethylamino)-3-oxopropyl)(4-(thiazol-2-yl)phenyl)carbamoyl)pyrrolidin-1-yl)-3-(naphthalen-2-yl)-1-oxopropan-2-yl)carbamoyl)benzo[b]thiophen-5-yl)difluoromethyl)phosphonic acid]"
